Results reported in US10526292B2 (Parion Sciences, Inc., priority 2012, dated 2020).

Assays:
[1] = test system: ExLac rats; assay: Tear volume in rat model of dry eye disease (lacrimal gland excision, ExLac Model); assay type: in vivo, Sprague Dawley rats; details: 5 μl test article solution per eye, tear volume by ZoneQuick thread over 6 h
Protocol: The effects of compounds on tear volume was assessed in a rat model of dry eye disease in which Sprague Dawley rats undergo surgical lacrimal gland excision (ExLac Model) to reduce normal tear volume. The lacrimal excision reduces normal tear volume by ˜50% (Table 2).
Both the ipsilateral and contralateral eyes were dosed with 5 μl of test article solution. Tear production was measured using the ZoneQuick cotton thread with impregnated phenol red dye. The folded end of the thread was held in the lateral-ventral conjunctival cul-de-sac for 10 seconds. The length of tear wicking onto the thread was determined by measuring the length of the thread that changes color from yellow to red. Use of a stereomicroscope was assist in the accurate measurement (recorded in millimeters) of the wicking/color change. Tear volume was assessed pre-dose, and 15, 30, 60, 120, and 360 minute post-dose. For reference, the effect of a saline vehicle is shown for ExLac rats and normal (no lacrimal excision surgery) rats.

[2] = In vitro drug metabolism: plasma stability, dog; assay type: in vitro ADME; details: 2.5 μM, 37° C., up to six hours
Protocol: (§1) The metabolic stability of 9 and 15 was assessed in plasma (rat, rabbit, dog and human) and hepatocytes (rat and dog). Compounds were added either directly to plasma or to hepatocyte suspensions at a final concentration of 2.5 or 10 μM, respectively, and incubated at 37° C. for up to six hours. Aliquots were removed at various time points and quenched. The amount of parent compound was quantified via UPLC-fluorescence analysis. The amount of parent compound remaining was calculated based on the total peak area at the time of sampling divided by the total peak area at initiation.

[3] = In vitro drug metabolism: hepatocyte stability, rat; assay type: in vitro ADME; details: rat hepatocyte suspension, 10 μM, 37° C., up to six hours
Protocol: as §1

[4] = In vitro drug metabolism: plasma stability, rat; assay type: in vitro ADME; details: 2.5 μM, 37° C., up to six hours
Protocol: as §1

[5] = In vitro drug metabolism: plasma stability, human; assay type: in vitro ADME; details: 2.5 μM, 37° C., up to six hours
Protocol: as §1

[6] = In vitro drug metabolism: summary in words for plasma and hepatocytes among the species evaluated; assay type: in vitro ADME; details: plasma (rat, rabbit, dog, human) and hepatocytes (rat, dog)
Protocol: as §1

[7] = In vitro drug metabolism: hepatocyte stability, dog; assay type: in vitro ADME; details: dog hepatocyte suspension, 10 μM, 37° C., up to six hours
Protocol: as §1

[8] = In vitro drug metabolism: plasma stability, rabbit; assay type: in vitro ADME; details: 2.5 μM, 37° C., up to six hours
Protocol: as §1

[9] = test system: rabbits; details: topical addition; cited from earlier work
[10] = test system: rats; details: topical addition; cited from earlier work
[11] = Confocal microscopy assay of amiloride congener transport; assay type: in vitro ADME; details: applied to apical (epithelial) surface of mouse corneas, one hour at 37 C
Source text: Serial x-y images were obtained one hour post-drug addition by confocal microsopy.

SMILES	6 h Ocular Hydration (AUC0-6) [1]	also measured
N=C(NCCCCc1ccc(OCCN(CCCNC(=O)[C@@H](N)CCCCNC(=O)[C@@H](N)CCCCN)CCCNC(=O)[C@@H](N)CCCCNC(=O)[C@@H](N)CCCCN)cc1)NC(=O)c1nc(Cl)c(N)nc1N [Compound 59, (S,2S,2′S)—N,N′-(3,3′-(2-(4-(4-(3-(3,5-diamino-6-chloropyrazine-2-carbonyl)guanidino)butyl)phenoxy)ethylazanediyl)bis(propane-3,1-diyl))bis(2-amino-6-((S)-2,6-diaminohexanamido)hexanamide)]	39.7	–
N=C(N)NCCCC[C@@H](N)C(=O)NCCCN(CCCNC(=O)[C@H](N)CCCCNC(=N)N)CCOc1ccc2cc(CCCCNC(=N)NC(=O)c3nc(Cl)c(N)nc3N)ccc2c1 [Compound 116, (2R,2′R)—N,N′-(3,3′-(2-(6-(4-(3-(3,5-diamino-6-chloropyrazine-2-carbonyl)guanidino)butyl)naphthalen-2-yloxy)ethylazanediyl)bis(propane-3,1-diyl))bis(2-amino-6-guanidinohexanamide)]	40.9	–
N=C(N)NCCCC[C@H](N)C(=O)NCCCN(CCCNC(=O)[C@@H](N)CCCCNC(=N)N)CCOc1ccc(CCCCNC(=N)NC(=O)c2nc(Cl)c(N)nc2N)cc1 [Compound 15, (2S,2′S)—N,N′-(3,3′-(2-(4-(4-(3-(3,5-diamino-6-chloropyrazine-2-carbonyl)guanidino)butyl)phenoxy)ethylazanediyl)bis(propane-3,1-diyl))bis(2-amino-6-guanidinohexanamide)]	50.2	Plasma Stability (amount of parent compound remaining) [2]: 18%; Hepatocyte Stability (amount of parent compound remaining) [3]: 14%; Plasma Stability (amount of parent compound remaining) [4]: 10%; Plasma Stability (amount of parent compound remaining) [5]: 7.6%; Stability towards metabolic hydrolysis in plasma and hepatocytes [6]: rapidly metabolized; Hepatocyte Stability (amount of parent compound remaining) [7]: 19%; Plasma Stability (amount of parent compound remaining) [8]: 8.7%
N=C(N)NCCCC[C@H](N)C(=O)NCCCN(CCCN)CCOc1ccc(CCCCNC(=N)NC(=O)c2nc(Cl)c(N)nc2N)cc1 [Compound 51, (S)-3,5-diamino-N—(N-(4-(4-(2-((3-(2-amino-6-guanidinohexanamido)propyl)(3-aminopropyl)amino)ethoxy)phenyl)butyl)carbamimidoyl)-6-chloropyrazine-2-carboxamide]	38.0	–
N=C(N)NC(=O)c1nc(Cl)c(N)nc1N [Amiloride, amiloride]	30.4	Change of tear volume [9]: approximate doubling of tear volume; Time tear volume remained elevated post-administration [9]: > 60 min; Change of tear volume [10]: approximate doubling of tear volume; Time tear volume remained elevated post-administration [10]: > 60 min; Penetration of the cornea (confocal x-z image, FIG. 16) [11]: can fully penetrate the cornea
N=C(N)NCCCC[C@H](N)C(=O)NCCCC[C@H](N)C(=O)NCCCC[C@H](N)C(=O)NCCCN(CCCNC(=O)[C@@H](N)CCCCNC(=O)[C@@H](N)CCCCNC(=O)[C@@H](N)CCCCNC(=N)N)CCOc1ccc(CCCCNC(=N)NC(=O)c2nc(Cl)c(N)nc2N)cc1 [Compound 102, (S,S,2S,2′S)—N,N′-(3,3′-(2-(4-(4-(3-(3,5-diamino-6-chloropyrazine-2-carbonyl)guanidino)butyl)phenoxy)ethylazanediyl)bis(propane-3,1-diyl))bis(2-amino-6-((S)-2-amino-6-((S)-2-amino-6-guanidinohexanamido)hexanamido)hexanamide)]	43.2	–
COC(=O)NC(=N)NCCCC[C@@H](N)C(=O)NCCCN(CCCNC(=O)[C@H](N)CCCCNC(=N)N)CCOc1ccc(CCCCNC(=N)NC(=O)c2nc(Cl)c(N)nc2N)cc1 [Compound 46, 3,5-diamino-N—(N-(4-(4-((R)-11-amino-17-(3-((R)-2-amino-6-guanidinohexanamido)propyl)-5-imino-3,12-dioxo-2-oxa-4,6,13,17-tetraazanonadecan-19-yloxy)phenyl)butyl)carbamimidoyl)-6-chloropyrazine-2-carboxamide]	39.9	–
N=C(N)NCCCC[C@@H](N)C(=O)NCCCN(CCCNC(=O)[C@@H](N)CCCCNC(=N)N)CCOc1ccc(CCCCNC(=N)NC(=O)c2nc(Cl)c(N)nc2N)cc1 [Compound 90, 3,5-diamino-N—(N-(4-(4-(2-((3-((R)-2-amino-6-guanidinohexanamido)propyl)(3-((S)-2-amino-6-guanidinohexanamido)propyl)amino)ethoxy)phenyl)butyl)carbamimidoyl)-6-chloropyrazine-2-carboxamide]	49.0	–
N=C(NCCCC[C@H](N)C(=O)NCCCN(CCCNC(=O)[C@@H](N)CCCCNC(=N)NC(=O)c1ccccc1)CCOc1ccc(CCCCNC(=N)NC(=O)c2nc(Cl)c(N)nc2N)cc1)NC(=O)c1ccccc1 [Compound 75, N,N′-((7S,19S)-7,19-diamino-13-(2-(4-(4-(3-(3,5-diamino-6-chloropyrazine-2-carbonyl)guanidino)butyl)phenoxy)ethyl)-1,25-diimino-8,18-dioxo-2,9,13,17,24-pentaazapentacosane-1,25-diyl)dibenzamide]	38.2	–
N=C(N)NCCCC[C@H](N)C(=O)NCCCN(CCCNC(=O)[C@@H](N)CCCCNC(=N)N)CCCc1ccc(NC(=O)[C@@H](N)Cc2ccc(CCCCNC(=N)NC(=O)c3nc(Cl)c(N)nc3N)cc2)cc1 [Compound 145, (2S,2′S)—N,N′-(3,3′-(3-(4-((S)-2-amino-3-(4-(4-(3-(3,5-diamino-6-chloropyrazine-2-carbonyl)guanidino)butyl)phenyl)propanamido)phenyl)propylazanediyl)bis(propane-3,1-diyl))bis(2-amino-6-guanidinohexanamide)]	44.7	–
N=C(N)NCCCC[C@H](N)C(=O)NCCCN(CCCNC(=O)[C@@H](N)CCCCNC(=N)N)CCCN(CCCN(CCCNC(=O)[C@@H](N)CCCCNC(=N)N)CCCNC(=O)[C@@H](N)CCCCNC(=N)N)CCOc1ccc(CCCCNC(=N)NC(=O)c2nc(Cl)c(N)nc2N)cc1 [Compound 82, (2S,2′S,2″S,2′″S)—N,N′,N″,N′″-(3,3′,3″,3′″-(3,3′-(2-(4-(4-(3-(3,5-diamino-6-chloropyrazine-2-carbonyl)guanidino)butyl)phenoxy)ethylazanediyl)bis(propane-3,1-diyl))bis(azanetriyl)tetrakis(propane-3,1-diyl))tetrakis(2-amino-6-guanidinohexanamide)]	49.8	–
N=C(NCCCCc1ccc(OCCN(CCCN)CCCN)cc1)NC(=O)c1nc(Cl)c(N)nc1N [Compound 45, 3,5-diamino-N—(N-(4-(4-(2-(bis(3-aminopropyl)amino)ethoxy)phenyl)butyl)carbamimidoyl)-6-chloropyrazine-2-carboxamide]	42.3	Hepatocyte Stability (amount of parent compound remaining) [3]: 83%; Hepatocyte Stability (amount of parent compound remaining) [7]: 75%
N=C(N)NCCCC[C@@H](N)C(=O)NCCCN(CCCNC(=O)[C@H](N)CCCCNC(=N)N)CCOc1ccc(CCCCNC(=N)NC(=O)c2nc(Cl)c(N)nc2N)c2c1CCCC2 [Compound 133, (2R,2′R)—N,N′-(3,3′-(2-(4-(4-(3-(3,5-diamino-6-chloropyrazine-2-carbonyl)guanidino)butyl)-5,6,7,8-tetrahydronaphthalen-1-yloxy)ethylazanediyl)bis(propane-3,1-diyl))bis(2-amino-6-guanidinohexanamide)]	45.7	–
N=C(N)NCCCC[C@H](NC[C@H](O)[C@@H](O)[C@H](O)[C@H](O)CO)C(=O)NCCCN(CCCNC(=O)[C@H](CCCCNC(=N)N)NC[C@H](O)[C@@H](O)[C@H](O)[C@H](O)CO)CCOc1ccc(CCCCNC(=N)NC(=O)c2nc(Cl)c(N)nc2N)cc1 [Compound 42, (S,R,R,R,2S,2′S)—N,N′-(3,3′-(2-(4-(4-(3-(3,5-diamino-6-chloropyrazine-2-carbonyl)guanidino)butyl)phenoxy)ethylazanediyl)bis(propane-3,1-diyl))bis(6-guanidino-2-((2S,3R,4R,5R)-2,3,4,5,6-pentahydroxyhexylamino)hexanamide)]	52.3	–
